According to patent publication US20190133124A1, “BACILLUS AND LIPOCHITOOLIGOSACCHARIDE FOR IMPROVING PLANT GROWTH” (NOVOZYMES BIOAG A/S, priority 2016, published 2019):

How the values were obtained:
[1] = system: corn seeds (Monsanto, DKC 63-33); assay: Metro-Mix 830 system (growth chamber): corn seedling dry weight after seed treatment with Bacillus amyloliquefaciens and Myc factor; type: in vivo
Protocol: A study was performed to determine the effect of Bacillus amyloliquefaciens, LCOs, or combinations of Bacillus amyloliquefaciens and LCOs on corn growth. Corn seeds were treated with Bacillus amyloliquefaciens strain SB3281 bacteria alone, or in combination with an LCO IV (C16:0, S) Myc factor (FIG. 1B). In this study, corn seeds treated with Bacillus amyloliquefaciens alone or Myc factor alone were compared to non-treated control corn seeds. In addition, corn seeds treated with Bacillus amyloliquefaciens and Myc factor were included in the study. Seeds treated as above were tested in a system designed to test various parameters of early emergence of treated seeds. In this system, the treated seeds were planted in Metro-Mix® 830 (Sun Gro Horticulture; […], Mass., U.S.) and grown in a growth chamber (25° C., 60% relative humidity, 18/6 hour light/dark cycle). Germination trays (12 rows of 6 wells) were filled with moist Metro-Mix® 830. Treated seeds were sown into the wells (30 wells per seed treatment) and grown in the growth chamber for 8 days. The seedlings were harvested, and dry weights of roots/shoots from the seedlings were obtained. To measure the dry weight, the soil was removed from the roots, and dry weights of the roots/shoots and biomass per seedling were determined as described in Example 1. To obtain the Bacillus amyloliquefaciens bacterium for the study, strain SB3281 (ATCC PTA-7542) was grown as described in Example 1. Samples of the bacteria were taken from the culture at 24 hrs (T1). The number of bacteria in the cultures at the various time points was determined by plating serial dilutions from the cultures on SMA plates and the colonies that formed were counted and multiplied by the dilution factor. The number of spores in the cultures were determined by heating aliquots from the cultures at 80° C. in a water bath for 10 minutes to kill vegetative cells. Serial dilutions were plated as above and colony counts multiplied by the dilution factor. Corn seeds were treated by applying a total of 500 μl of treatment substances (e.g., bacteria, LCO, etc.) to 50 g of corn seeds (Monsanto, DKC 63-33). The seeds were allowed to dry at room temperature in bags for 3-4 hours before used in the Metro-Mix® experiments. Control seeds were treated with 500 μl of water. Another group of seeds was treated with 500 μl of a Bacillus amyloliquefaciens culture. A third group of seeds was treated with 500 μl of a 10^-9 M solution of Myc factor. A fourth group of seeds was treated with 250 μl of the Bacillus amyloliquefaciens culture and 250 μl of a 10^-9 M solution of Myc factor.

[2] = system: corn seeds (Monsanto, DKC 63-33); assay: Moist chamber system: corn seedling dry weight after seed treatment with Bacillus amyloliquefaciens and Nod factor; type: in vivo
Protocol: A study was performed to determine the effect of seed treatment of Bacillus amyloliquefaciens, a Nod factor, or a combination of Bacillus amyloliquefaciens and a Nod factor on corn growth. Corn seeds were treated with Bacillus amyloliquefaciens strain SB3281 bacteria alone, an LCO V (C18:1) Nod factor (FIG. 1A) alone, or a combination of the bacterial strain and Nod factor. Seeds treated as above were tested in a system designed to test various parameters of early seed germination. In this system, the seeds were placed on moist germination paper, in petri dishes, in a representative mock moist chamber experiment (for each seed treatment, 3 petri dishes, each with 5 seeds per dish, were used; 10 ml of deionized water was added to the germination paper per dish). The seeds were allowed to grow in the petri dishes at room temperature for approximately 2 weeks. After that time, various parameters of the seedlings were measured. The lengths of roots/shoots were measured in some experiments. In some experiments, the dry weights of the roots/shoots were determined after dissecting roots from shoots, drying the roots/shoots (placed in a coin envelope) in a 70° C. oven for 2 days, and weighing the roots/shoots. The individual biomass per seedling was determined from these measurements in order to find the average biomass per treatment. To obtain the Bacillus amyloliquefaciens bacterium for the study, strain SB3281 (ATCC PTA-7542) was maintained on Standard Methods Agar (“SMA”; Smith River Biologicals; Ferrum, Va., U.S.). Single colonies were selected from SMA and used to inoculate 5 ml of LB medium. Twenty-four hour old LB cultures were used to inoculate a 250 ml flask containing 100 ml of Si medium (per liter contained 9.4 g of yeast extract, 9.4 g of corn syrup solids, 0.5 g of magnesium chloride hexahydrate, 0.2 g of manganese (II) chloride tetrahydrate, 0.2 g of calcium chloride dehydrate, and 0.27 g of sodium hydroxide, pH 7.0). The flask was incubated at 30° C. on a shaker at 165 rpm. Samples of the bacteria were taken from the culture at 7 days (T7). The number of bacteria in the cultures at the various time points was determined by plating serial dilutions from the cultures on SMA plates and the colonies that formed were counted and multiplied by the dilution factor. The number of spores in the cultures were determined by heating aliquots from the cultures at 80° C. in a water bath for 10 minutes to kill vegetative cells. Serial dilutions were plated as above and colony counts multiplied by the dilution factor. Generally, the cultures contained 10^9 bacteria or spores per ml. Corn seeds were treated by applying a total of 500 μl of treatment substances (e.g., bacteria, LCO, etc.) to 50 g of corn seeds (Monsanto, DKC 63-33). The seeds were allowed to dry at room temperature in bags for 3-4 hours before used in the moist chamber experiments. For treatment of seeds with a single substance (e.g., bacteria alone, LCO alone), 500 μl of the bacterial culture was used, or 500 μl of a LCO solution that contained 6 μl of a 10^−8 M LCO stock solution in 100 ml of buffer was used. For treatment of seeds with two substances (e.g., bacteria and an LCO), 250 μl of the bacterial culture and 250 μl of the 6×10^−13 M LCO stock solution was used. Negative control corn seeds were treated with 500 μl of water. […]

Row | Compound | Average individual seedling dry weight ([1]; Metro-Mix 830, growth chamber 25° C., 8 days, culture grown 1 day (T1), single: 500 μl culture or 500 μl 10^−9 M Myc factor, combination: 250 μl + 250 μl, per 50 g seeds) [g] | Decrease in seedling dry weight versus control ([1]; difference to control 0.1985 g, Metro-Mix 830) [g] | Change in seedling dry weight over control (about %) ([1]; rounded, Metro-Mix 830) | Effect on corn plant growth (in words) ([1]; seedling dry weight, Metro-Mix 830) | Percent increase seedling dry weight over control ([1]; vs water-treated control, Metro-Mix 830, 8 days) [%] | Average individual seedling dry weight ([2]; approximately 2 weeks, T7 culture, single: 500 μl culture or 500 μl 6×10^−13 M LCO, combination: 250 μl + 250 μl, per 50 g seeds) [g] | Increase in seedling dry weight over control ([2]; difference to control 0.2190 g) [g] | Increase in seedling dry weight over control (about %) ([2]; rounded) | Effect on corn plant growth (in words) ([2]; seedling dry weight) | Percent increase seedling dry weight over control ([2]; vs water-treated control) [%]
1 | CCCCCCCCCCCCCCCC(=O)N[C@H]1[C@H](O[C@H]2[C@H](O)[C@@H](NC(C)=O)[C@H](O[C@H]3[C@H](O)[C@@H](NC(C)=O)[C@H](O[C@H]4[C@H](O)[C@@H](NC(C)=O)C(O)O[C@@H]4COS(=O)(=O)O)O[C@@H]3CO)O[C@@H]2CO)O[C@H](CO)[C@@H](O)[C@@H]1O (stereo partly shown) [Myc factor, LCO IV (C16:0, S)] | 0.1921 | 0.0064 | about −3.2% | appeared to have a negative effect on corn plant growth | −3.22 |  |  |  |  | 
2 | LCO V (C18:1) [Nod factor] |  |  |  |  |  | 0.2244 | 0.0054 | about 2.5% | increased corn plant growth | 2.47
